From publication PMC4521712, “Enhanced Bacterial α(2,6)-Sialyltransferase Reaction through an Inhibition of Its Inherent Sialidase Activity by Dephosphorylation of Cytidine-5'-Monophosphate” (PLoS ONE, 2015)

How the values were obtained:
Format in all cases: biochemical
P224-ST [1] = molecular target: T1, P224-ST (Photobacterium sp. JT-ISH-224, UniProt A8QYL1); assay: HPLC of AA-lactose released from AA-6'-sialyllactose (sialidase activity); settings: 1 mM, 50 μM AA-6'-sialyllactose, 100 mM sodium phosphate pH 6.0, 37°C, 2 h
T1 construct: gene pst6-224; residues 18-514 with catalytic domain, pColdII N-terminal His-tag (kept), codon-optimised gene, E. coli BL21, Ni-NTA
T1 sequence (A8QYL1 18-514): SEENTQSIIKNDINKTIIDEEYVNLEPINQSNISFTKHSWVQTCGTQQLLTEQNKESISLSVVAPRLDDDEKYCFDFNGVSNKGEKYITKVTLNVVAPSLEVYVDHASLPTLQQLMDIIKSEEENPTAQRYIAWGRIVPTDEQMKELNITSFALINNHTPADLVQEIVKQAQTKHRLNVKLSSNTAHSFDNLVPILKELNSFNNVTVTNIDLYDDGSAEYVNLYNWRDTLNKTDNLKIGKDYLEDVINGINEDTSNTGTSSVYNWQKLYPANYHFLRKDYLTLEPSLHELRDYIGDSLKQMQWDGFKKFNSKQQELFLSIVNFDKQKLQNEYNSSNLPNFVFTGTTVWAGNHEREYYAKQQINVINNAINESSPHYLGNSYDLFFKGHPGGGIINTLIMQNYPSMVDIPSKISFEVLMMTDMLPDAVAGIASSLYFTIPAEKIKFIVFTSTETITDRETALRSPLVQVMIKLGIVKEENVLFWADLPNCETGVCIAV

P145-ST [2] = molecular target: T2, P145-ST (Photobacterium leiognathi, UniProt A8R0T5); assay: as above; settings: inhibitor of sialidase activity, 0.01-10 mM; 50 μM AA-6'-sialyllactose, 100 mM sodium phosphate pH 6.0, 37°C, 2 h
T2 construct: gene plst6; residues 16-497 with catalytic domain, pColdII N-terminal His-tag (kept), codon-optimised gene, E. coli BL21, Ni-NTA
T2 sequence (A8R0T5 16-497): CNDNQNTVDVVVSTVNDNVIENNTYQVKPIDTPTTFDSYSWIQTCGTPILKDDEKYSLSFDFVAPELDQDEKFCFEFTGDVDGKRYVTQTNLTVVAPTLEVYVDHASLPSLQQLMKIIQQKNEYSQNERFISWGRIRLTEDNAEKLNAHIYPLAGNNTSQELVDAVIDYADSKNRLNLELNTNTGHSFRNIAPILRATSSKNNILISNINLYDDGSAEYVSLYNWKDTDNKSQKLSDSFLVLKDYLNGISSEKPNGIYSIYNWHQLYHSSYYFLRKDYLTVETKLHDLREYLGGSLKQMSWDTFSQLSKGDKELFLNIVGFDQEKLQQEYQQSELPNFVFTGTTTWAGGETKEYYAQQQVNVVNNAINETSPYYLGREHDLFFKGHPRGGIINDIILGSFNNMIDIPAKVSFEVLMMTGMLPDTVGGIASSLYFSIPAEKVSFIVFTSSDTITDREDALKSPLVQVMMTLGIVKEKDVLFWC

Pd-ST [3] = molecular target: T3, Pd-ST (Photobacterium damselae, UniProt O66375); assay: as above; settings: 1 mM, 50 μM AA-6'-sialyllactose, 100 mM sodium phosphate pH 6.0, 37°C, 2 h
T3 construct: gene bst; residues 16-497 with catalytic domain, pColdII N-terminal His-tag (kept), codon-optimised gene, E. coli BL21, Ni-NTA
T3 sequence (O66375 16-497): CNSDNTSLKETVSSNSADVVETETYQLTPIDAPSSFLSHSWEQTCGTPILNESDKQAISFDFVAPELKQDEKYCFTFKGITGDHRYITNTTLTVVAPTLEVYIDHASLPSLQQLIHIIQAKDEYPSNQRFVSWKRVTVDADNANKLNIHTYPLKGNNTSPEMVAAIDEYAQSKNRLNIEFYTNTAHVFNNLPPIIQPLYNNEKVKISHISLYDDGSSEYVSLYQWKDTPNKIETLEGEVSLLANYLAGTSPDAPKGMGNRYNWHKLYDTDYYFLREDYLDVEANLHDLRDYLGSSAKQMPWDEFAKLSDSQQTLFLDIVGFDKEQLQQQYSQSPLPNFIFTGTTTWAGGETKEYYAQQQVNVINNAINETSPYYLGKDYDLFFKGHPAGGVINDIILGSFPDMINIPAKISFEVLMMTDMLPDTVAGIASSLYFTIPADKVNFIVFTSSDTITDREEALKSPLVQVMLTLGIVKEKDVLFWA

P145-ST [4] = molecular target: T2, P145-ST; assay: as above; settings: 50 μM AA-6'-sialyllactose, 100 mM sodium phosphate pH 6.0, 37°C, 2 h
P224-ST [5] = molecular target: T1, P224-ST; assay: HPLC of sialylated AA-glycans, Michaelis-Menten fit; settings: sialyltransferase; 0.5 mM CMP-Neu5Ac, 100 mM Tris-HCl pH 8.0, 30°C, 5 min; labelled compound; read-out: apparent Km
Source text: HPLC of sialylated AA-glycans, Michaelis-Menten fit on P224-ST | The apparent Km values of Pd-, P224-, and P145-ST for G2-AA substrate are […]

Pd-ST [6] = molecular target: T3, Pd-ST; assay: as above; settings: sialyltransferase; 0.5 mM CMP-Neu5Ac, 100 mM Tris-HCl pH 8.0, 30°C, 5 min; labelled compound; read-out: apparent Km
P145-ST [7] = molecular target: T2, P145-ST; assay: as above; settings: sialyltransferase; 0.5 mM CMP-Neu5Ac, 100 mM Tris-HCl pH 8.0, 30°C, 5 min; labelled compound; read-out: apparent Km
Source text: HPLC of sialylated AA-glycans, Michaelis-Menten fit on P145-ST | The apparent Km values of Pd-, P224-, and P145-ST for G2-AA substrate are […]

[8] = inhibitor of sialidase activity
[9] = activator of sialidase activity

In the case of `Nc1ccn([C@@H]2O[C@H](COP(=O)(O)OP(=O)(O)O)[C@@H](O)[C@H]2O)c(=O)n1` [CDP], the “HPLC of AA-lactose released from AA-6'-sialyllactose (sialidase activity)” value (shortened to “HPLC of AA-lactose released”) (P224-ST [1]; [8]) is reported as “all other tested nucleotides including CDP, CTP, and cytidine showed decreasing effects”, the “HPLC of AA-lactose released” value (P145-ST [2]) is reported as “CTP and CDP inhibited sialidase activity in a concentration-dependent manner” and the “HPLC of AA-lactose released” value (Pd-ST [3]; [8]) is reported as “all other tested nucleotides including CDP, CTP, and cytidine showed decreasing effects”.
For `Nc1ccn([C@@H]2O[C@H](COP(=O)(O)O)[C@@H](O)[C@H]2O)c(=O)n1` [CMP], the “% lactose formed at 10 mM” value (P145-ST [4]; [9]) was 43%, the “HPLC of AA-lactose released” value (P224-ST [1]; [9]) was “the addition of CMP increased the sialidase activity” and the “HPLC of AA-lactose released” value (Pd-ST [3]; [9]) was “the addition of CMP increased the sialidase activity”.
In the case of `Nc1ccn([C@@H]2O[C@H](COP(=O)(O)OP(=O)(O)OP(=O)(O)O)[C@@H](O)[C@H]2O)c(=O)n1` [CTP], the “% lactose formed at 10 mM” value (P145-ST [4]; [8]) is reported as 2%, the “HPLC of AA-lactose released” value (P224-ST [1]; [8]) is reported as “all other tested nucleotides including CDP, CTP, and cytidine showed decreasing effects” and the “HPLC of AA-lactose released” value (Pd-ST [3]; [8]) is reported as “all other tested nucleotides including CDP, CTP, and cytidine showed decreasing effects”.
`CC(=O)N[C@H]1[C@H](O[C@@H]([C@H](O)[C@H](CNc2ccccc2C(=O)O)NC(C)=O)[C@H](O)CO)O[C@H](CO)[C@@H](O[C@@H]2O[C@H](CO[C@H]3O[C@H](CO)[C@@H](O)[C@H](O)[C@@H]3O[C@@H]3O[C@H](CO)[C@@H](O[C@@H]4O[C@H](CO)[C@H](O)[C@H](O)[C@H]4O)[C@H](O)[C@H]3NC(C)=O)[C@@H](O)[C@H](O[C@H]3O[C@H](CO)[C@@H](O)[C@H](O)[C@@H]3O[C@@H]3O[C@H](CO)[C@@H](O[C@@H]4O[C@H](CO)[C@H](O)[C@H](O)[C@H]4O)[C@H](O)[C@H]3NC(C)=O)[C@@H]2O)[C@@H]1O` [G2-AA, AA-labeled G2 glycan] gave a Km (P224-ST [5]) of 39.2 ± 4.7 µM, a Km (Pd-ST [6]) of 36.1 ± 4.9 µM and a Km (P145-ST [7]) of 27.8 ± 5.8 µM.
For `Nc1ccn([C@@H]2O[C@H](CO)[C@@H](O)[C@H]2O)c(=O)n1` [cytidine], the “HPLC of AA-lactose released” value (P224-ST [1]; [8]) was “all other tested nucleotides including CDP, CTP, and cytidine showed decreasing effects”, the “HPLC of AA-lactose released” value (P145-ST [2]) was “cytidine appeared to inhibit sialidase activity in an on-and-off mode” and the “HPLC of AA-lactose released” value (Pd-ST [3]; [8]) was “all other tested nucleotides including CDP, CTP, and cytidine showed decreasing effects”.
